{
  "source": "patent US7314641B1",
  "about": "“High-bioavailability particle coated with fungicide and polymer” (Everest Pharm. Industrial Co., Ltd., priority 2007, dated 2008)",
  "origin": "cited, not measured here",
  "key": {"[1]": {"conditions": "prior art statement on the compound of U.S. Pat. No. 4,267,179"}},
  "data": [
    {"molecule": "CCC(C)n1ncn(-c2ccc(N3CCN(c4ccc(OCC5COC(Cn6cncn6)(c6ccc(Cl)cc6Cl)O5)cc4)CC3)cc2)c1=O", "note": "(single isomer, unassigned; (+)) [itraconazole, (+)-cis-4-[4-[4-[-4[[2-(2,4-dichlorophenyl)-2-(1H-1,2,4-triazol-1-ylmethyl)-1,3-dioxolan-4-yl]methoxy]phenyl]-1-piperazinyl]phenyl-2,4-dihydro-2-1(1-methylpropyl)-3H-1,2,4-triazol-3-one]", "values": [
      {"measurement": "Metabolic period in human beings", "result": 96, "unit": "h"},
      {"measurement": "water solubility", "setting": "[1]", "result": "not water soluble"}
    ]}
  ]
}
